According to patent publication US10385065B2, “Antibacterial compounds” (priority 2014, dated 2019):
Values after ≈ are worked out from the molar mass of the structure shown. Read-outs that look alike come from different tables or passages of the source.

Assays:
Type in all cases: cell-based
[1] = system: human hepatic cell line (HepG2 ATCC HB-8065); test: Human cell viability assay (CellTiter-Glo), HepG2; conditions: HepG2, 24 h incubation, tested over 1-128 μg/mL, read-out: IC50 values against HepG2
Experimental: Compounds are assessed for potential non-specific cytotoxic effects against a human hepatic cell line (HepG2 ATCC HB-8065). HepG2 cells are seeded at 20,000 cells/well in 96-well microtitre plates in minimal essential medium (MEM) supplemented with a final concentration of 10% FBS and 1 mM sodium pyruvate. After 24 h compound dilutions are prepared in Dulbecco's minimum essential media (DMEM) supplemented with final concentrations of 0.001% FBS, 0.3% bovine albumin and 0.02% HEPES and added to cells. Compounds are tested in two-fold serial dilutions over a final concentration range of 1-128 μg/mL in a final DMSO concentration of 1% vol/vol. Chlorpromazine is used as a positive control. Cells are incubated with compound at 37° C. and 5% CO2 for a further 24 h, after which time the CellTiter-Glo reagent (Promega) is added. Luminescence is measured on a BMG Omega plate reader. Data are analysed using GraphPad Prism software to determine the concentration of compound that inhibits cell viability by fifty percent (IC50).

[2] = system: S. aureus SACPX1-SP25 MSSA - FQ resistant; test: microbe, parasite or virus in culture; conditions: Staphylococcus aureus, ATCC 29213 / MSSA, read-out: MIC S. aureus SACPX1-SP25 MSSA - FQ resistant (isogenic mutant of ATCC 29213)
[3] = system: Staphylococcus aureus ATCC 29213; test: MIC, broth microdilution, S. aureus ATCC 29213
[4] = system: Enterococcus faecium ATCC 19434; test: MIC, E. faecium ATCC 19434; conditions: ATCC19434, Table 2
[5] = system: Haemophilus influenzae ATCC 49247; test: MIC, H. influenzae ATCC 49247; conditions: ATCC49247, Table 4
[6] = system: Escherichia coli ATCC 25922; test: MIC, broth microdilution, E. coli ATCC 25922; conditions: ATCC25922, Table 1, wild type strain
[7] = system: S. aureus NRS482 MRSA FQ resistant; test: MIC, S. aureus NRS482; conditions: Staphylococcus aureus; Table 2
[8] = system: S. aureus VRS1 MRSA VAN resistant; test: MIC, S. aureus VRS1; conditions: Staphylococcus aureus, Table 2
[9] = system: S. aureus (MRSA) ATCC 43300; test: MIC, S. aureus ATCC 43300; conditions: Staphylococcus aureus; Table 2; read-out: MIC S. aureus (MRSA) ATCC 43300 Heterogeneous MRSA strain
[10] = system: S. aureus NRS127 MRSA LZD resistant; test: MIC, S. aureus NRS127; conditions: Staphylococcus aureus; Table 2
[11] = system: S. aureus NRS1 MRSA; test: MIC, S. aureus NRS1; conditions: Staphylococcus aureus; Table 2; read-out: MIC S. aureus NRS1 MRSA AMG & TET resistant
[12] = system: S. epidermidis NRS101 MRSE; test: MIC, S. epidermidis NRS101; conditions: Staphylococcus epidermidis; Table 2; read-out: MIC S. epidermidis NRS101 MRSE AMG, ERY resistant
[13] = ATCC29213, Table 1, wild type strain, read-out: MIC S. aureus ATCC 29213
[14] = ATCC 29213 / MSSA, Table 2, read-out: MIC S. aureus (MSSA) ATCC 29213 CLSI control strain

Row | SMILES | IC50 [1] [µg/mL] | MIC [2] [µg/mL] | MIC [3, 13] [µg/mL] | MIC [3, 14] [µg/mL] | MIC [4] [µg/mL] | MIC [5] [µg/mL] | MIC [6] [µg/mL] | MIC [7] [µg/mL] | MIC [8] [µg/mL] | MIC [9] [µg/mL] | MIC [10] [µg/mL] | MIC [11] [µg/mL] | MIC [12] [µg/mL]
1 | CCn1c(=O)c2ncoc2c2ccc(-c3cc(F)c(N)cc3F)c(C)c21 [Compound 2, 7-(4-amino-2,5-difluoro-phenyl)-5-ethyl-6-methyl-oxazolo[4,5-c]quinolin-4-one] | 10 to 100 (≈ 28.1 to 281 µM) | 1 to 10 (≈ 2.81 to 28.1 µM) | 1 to 10 (≈ 2.81 to 28.1 µM) | 1 to 10 (≈ 2.81 to 28.1 µM) | > 100 | 10 to 100 (≈ 28.1 to 281 µM) | > 100 | 1 to 10 (≈ 2.81 to 28.1 µM) | – | – | – | – | –
2 | Cc1nc2c(=O)n(C3CC3)c3c(C)c(-c4cc(F)c(N)cc4F)ccc3c2o1 [Compound 4, 7-(4-amino-2,5-difluoro-phenyl)-5-cyclopropyl-2,6-dimethyl-oxazolo[4,5-c]quinolin-4-one] | 10 to 100 (≈ 26.2 to 262 µM) | < 1 | < 1 | < 1 | > 100 | < 1 | 1 to 10 (≈ 2.62 to 26.2 µM) | < 1 | < 1 | < 1 | < 1 | 1 to 10 (≈ 2.62 to 26.2 µM) | –
3 | Cc1c(-c2cnc(N)nc2)ccc2c3ocnc3c(=O)n(C3CC3)c12 [Compound 14, 7-(2-aminopyrimidin-5-yl)-5-cyclopropyl-6-methyl-oxazolo[4,5-c]quinolin-4-one] | 10 to 100 (≈ 30 to 300 µM) | 1 to 10 (≈ 3 to 30 µM) | < 1 | < 1 | > 100 | 1 to 10 (≈ 3 to 30 µM) | 10 to 100 (≈ 30 to 300 µM) | 1 to 10 (≈ 3 to 30 µM) | – | 1 to 10 (≈ 3 to 30 µM) | – | 1 to 10 (≈ 3 to 30 µM) | –
4 | Cc1c(-c2cnc3[nH]nc(N)c3c2)ccc2c3ocnc3c(=O)n(C3CC3)c12 [Compound 21, 7-(3-amino-1H-pyrazolo[3,4-b]pyridine-5-yl)-5-cyclopropyl-6-methyl-oxazolo[4,5-c]quinolin-4-one] | 10 to 100 (≈ 26.9 to 269 µM) | – | < 1 | < 1 | 1 to 10 (≈ 2.69 to 26.9 µM) | 1 to 10 (≈ 2.69 to 26.9 µM) | 10 to 100 (≈ 26.9 to 269 µM) | < 1 | < 1 | < 1 | < 1 | < 1 | < 1
5 | Cc1c(-c2cc(F)c(CO)cc2F)ccc2c3ocnc3c(=O)n(C3CC3)c12 [Compound 25, 5-cyclopropyl-7-[2,5-difluoro-4-(hydroxymethyl)phenyl]-6-methyl-oxazolo[4,5-c]quinolin-4-one] | 10 to 100 (≈ 26.2 to 262 µM) | – | < 1 | < 1 | 10 to 100 (≈ 26.2 to 262 µM) | < 1 | 1 to 10 (≈ 2.62 to 26.2 µM) | < 1 | < 1 | < 1 | < 1 | < 1 | < 1
6 | Cc1nc2c(=O)n(C3CC3)c3c(C)c(-c4ccc(C(N)=O)cc4)ccc3c2o1 [Compound 26] | > 100 | – | < 1 | < 1 | > 100 | 1 to 10 (≈ 2.68 to 26.8 µM) | > 100 | 1 to 10 (≈ 2.68 to 26.8 µM) | 1 to 10 (≈ 2.68 to 26.8 µM) | 1 to 10 (≈ 2.68 to 26.8 µM) | 1 to 10 (≈ 2.68 to 26.8 µM) | 1 to 10 (≈ 2.68 to 26.8 µM) | < 1
7 | CCOC(=O)CNC(=O)c1ccc(-c2ccc3c4ocnc4c(=O)n(C4CC4)c3c2C)cc1 [Compound 30, ethyl-2-[{4-(5-cyclopropyl-6-methyl-4-oxo-oxazolo[4,5-c]quinolin-7-yl)benzoyl}amino]acetate] | 10 to 100 (≈ 22.4 to 224 µM) | – | 1 to 10 (≈ 2.24 to 22.4 µM) | 1 to 10 (≈ 2.24 to 22.4 µM) | > 100 | 1 to 10 (≈ 2.24 to 22.4 µM) | > 100 | 1 to 10 (≈ 2.24 to 22.4 µM) | 1 to 10 (≈ 2.24 to 22.4 µM) | 1 to 10 (≈ 2.24 to 22.4 µM) | 1 to 10 (≈ 2.24 to 22.4 µM) | 1 to 10 (≈ 2.24 to 22.4 µM) | –
8 | Cc1c(-c2ccc(N)c(F)c2)ccc2c3ocnc3c(=O)n(C3CC3)c12 [Compound 38, 7-(4-amino-3-fluorophenyl)-5-cyclopropyl-6-methyl-oxazolo[4,5-c]quinolin-4-one] | > 100 | < 1 | < 1 | < 1 | > 100 | < 1 | 1 to 10 (≈ 2.86 to 28.6 µM) | 1 to 10 (≈ 2.86 to 28.6 µM) | – | – | – | – | –
9 | Cc1nc2c(=O)n(C3CC3)c3cc(N4CCC(N)CC4)c(F)cc3c2o1 [Compound 49, 7-(4-amino-1-piperidyl)-5-cyclopropyl-8-fluoro-2-methyl-oxazolo[4,5-c]quinolin-4-one] | 10 to 100 (≈ 28.1 to 281 µM) | – | 1 to 10 (≈ 2.81 to 28.1 µM) | 1 to 10 (≈ 2.81 to 28.1 µM) | 10 to 100 (≈ 28.1 to 281 µM) | 1 to 10 (≈ 2.81 to 28.1 µM) | 1 to 10 (≈ 2.81 to 28.1 µM) | 10 to 100 (≈ 28.1 to 281 µM) | > 100 | 1 to 10 (≈ 2.81 to 28.1 µM) | 10 to 100 (≈ 28.1 to 281 µM) | 10 to 100 (≈ 28.1 to 281 µM) | –
10 | Cc1nc2c(=O)n(C3CC3)c3cc(N4CC[C@H](CN)C4)c(F)cc3c2o1 [Compound 52, 7-[(3R)-3-(aminomethyl)pyrrolidin-1-yl]-5-cyclopropyl-8-fluoro-2-methyl-oxazolo[4,5-c]quinolin-4-one] | 10 to 100 (≈ 28.1 to 281 µM) | 1 to 10 (≈ 2.81 to 28.1 µM) | 1 to 10 (≈ 2.81 to 28.1 µM) | 1 to 10 (≈ 2.81 to 28.1 µM) | 10 to 100 (≈ 28.1 to 281 µM) | 1 to 10 (≈ 2.81 to 28.1 µM) | 1 to 10 (≈ 2.81 to 28.1 µM) | 1 to 10 (≈ 2.81 to 28.1 µM) | 1 to 10 (≈ 2.81 to 28.1 µM) | < 1 | 1 to 10 (≈ 2.81 to 28.1 µM) | 1 to 10 (≈ 2.81 to 28.1 µM) | –
11 | Nc1cc(F)c(-c2cc3c(cc2F)c2ocnc2c(=O)n3C2CC2)cc1F [Compound 69, 7-(4-amino-2,5-difluoro-phenyl)-5-cyclopropyl-8-fluoro-oxazolo[4,5-c]quinolin-4-one] | – | – | < 1 | < 1 | > 100 | < 1 | 1 to 10 (≈ 2.69 to 26.9 µM) | 1 to 10 (≈ 2.69 to 26.9 µM) | < 1 | < 1 | < 1 | – | 1 to 10 (≈ 2.69 to 26.9 µM)
12 | Cc1nc2c(=O)n(C3CC3)c3cc(-c4ccc(CN)c(F)c4)c(F)cc3c2o1 [Compound 76, 7-[4-(aminomethyl)-3-fluoro-phenyl]-5-cyclopropyl-8-fluoro-2-methyl-oxazolo[4,5-c]quinolin-4-one] | – | – | < 1 | < 1 | 10 to 100 (≈ 26.2 to 262 µM) | 1 to 10 (≈ 2.62 to 26.2 µM) | 1 to 10 (≈ 2.62 to 26.2 µM) | 1 to 10 (≈ 2.62 to 26.2 µM) | 10 to 100 (≈ 26.2 to 262 µM) | < 1 | 1 to 10 (≈ 2.62 to 26.2 µM) | 1 to 10 (≈ 2.62 to 26.2 µM) | –
13 | NC1CCN(c2nc3c(cc2F)c2ocnc2c(=O)n3C2CC2)C1 (stereo not drawn) [Compound 80, 7-(3-aminopyrrolidin-1-yl)-5-cyclopropyl-8-fluoro-oxazolo[4,5-c][1,8]naphthyridin-4-one] | – | 10 to 100 (≈ 30.4 to 304 µM) | 1 to 10 (≈ 3.04 to 30.4 µM) | 1 to 10 (≈ 3.04 to 30.4 µM) | 10 to 100 (≈ 30.4 to 304 µM) | 10 to 100 (≈ 30.4 to 304 µM) | 1 to 10 (≈ 3.04 to 30.4 µM) | – | – | – | – | – | –
14 | C[C@H]1COc2c(-c3ccc(C(N)=O)cc3)ccc3c4ocnc4c(=O)n1c23 [Compound 96, 4-[(2S)-2-methyl-15-oxo-4,11-dioxa-1,13-diazatetracyclo[7.6.1.0^5,^16.0^10,^14]hexadeca-5(16),6,8,10(14),12-pentaen-6-yl]benzamide] | 10 to 100 (≈ 27.7 to 277 µM) | – | 1 to 10 (≈ 2.77 to 27.7 µM) | 1 to 10 (≈ 2.77 to 27.7 µM) | 10 to 100 (≈ 27.7 to 277 µM) | 1 to 10 (≈ 2.77 to 27.7 µM) | 10 to 100 (≈ 27.7 to 277 µM) | 1 to 10 (≈ 2.77 to 27.7 µM) | 1 to 10 (≈ 2.77 to 27.7 µM) | 1 to 10 (≈ 2.77 to 27.7 µM) | 1 to 10 (≈ 2.77 to 27.7 µM) | 1 to 10 (≈ 2.77 to 27.7 µM) | –
15 | Cc1c(-c2cc(F)c(N)cc2F)ccc2c3oc(CO)nc3c(=O)n(C3CC3)c12 [Compound 99, 7-(4-amino-2,5-difluorophenyl)-5-cyclopropyl-2-(hydroxymethyl)-6-methyloxazolo[4,5-c]quinolin-4-one] | – | – | < 1 | < 1 | – | < 1 | 1 to 10 (≈ 2.52 to 25.2 µM) | < 1 | 1 to 10 (≈ 2.52 to 25.2 µM) | < 1 | 1 to 10 (≈ 2.52 to 25.2 µM) | 1 to 10 (≈ 2.52 to 25.2 µM) | –
16 | Cc1c(-c2ccc3[nH]ncc3c2)ccc2c3scnc3c(=O)n(C3CC3)c12 [Compound 109, 5-Cyclopropyl-7-(1H-indazol-5-yl)-6-methyl-thiazolo[4,5-c]quinolin-4-one] | – | – | < 1 | < 1 | > 100 | 1 to 10 (≈ 2.68 to 26.8 µM) | < 1 | < 1 | < 1 | < 1 | < 1 | < 1 | 1 to 10 (≈ 2.68 to 26.8 µM)
